According to patent US20020169123A1, “Regulating apoptosis in TRAIL-resistant cancer cells, while protecting normal, non-cancerous cells” (THE TRUSTEES OF THE UNIVERSITY OF PENNSYLVANIA, priority 2001, published 2002):

Key:
[1] = system: esophageal cancer cell lines; test: active-caspase 3 assay, TRAIL cytotoxicity on esophageal cancer cell lines; format: cell-based, human
Protocol: To assess TRAIL cytotoxicity on esophageal cancer cells, the active-caspase 3 assay was used. […] After 16 hours of the TRAIL treatment, the cells were harvested and the active-caspase 3 assay was performed as described in the Experimental Procedures above. In the case of CHX treatment, the cells were pre-treated with CHX (10 μg/mL final concentration) for 6 hours before the addition of TRAIL.
The protein synthesis inhibitor, cycloheximide (“CHX”), has been widely used with apoptosis-inducing ligands, such as FAS/FASL, TNF-α, or TRAIL, to induce cell death effectively. […] This is because previous observers have reported that over-expression of c-FLIP can interrupt the recruitment of caspase 8 into DISC, thereby preventing down stream activation of the caspase cascade (Wajant et al., J. Biol. Chem. 275:24357-24366 (2000)). It has also been reported that CHX might sensitize the cells to TRAIL by inhibiting a de novo synthesis of c-FLIP, thereby increasing the recruitment of caspase 8 into DISC (Fulda et al., Cancer Res. 60:3947-3956 (2000)), followed by activation of downstream apoptotic signaling cascade.

[2] = system: EPC2 normal esophageal epithelial cells; details: EPC2 cells
Protocol: Normal human primary epithelial cells (EPC2, provided by Dr. Anil Rustgi, University of Pennsylvania) and primary human foreskin keratinocytes (HFK, provided by Dr. John C. Ansel, Emory University), were grown in Keratinocyte-SFM medium (Gibco BRL, Rockville, Md.) containing bovine pituitary extract (40 μg/mL) and epidermal growth factor (1 ng/mL). The primary epithelial cells were used at passage 4 or 5.
The N-terminal histidine (His) tagged recombinant human TRAIL (rhTRAIL, Thr-95 to Gly-281) was obtained from R&D Systems (Minneapolis, Minn.). A mouse monoclonal anti-6× His antibody (R&D Systems) was used for cross-linking the rhTRAIL. […] Cells were treated with TRAIL (50 ng/mL final concentration) and 1 μg/mL of anti-6× His (N-terrninal histidine antibody) for 4 hours or for 16 hours. The caspase inhibitor was used at a final concentration of 20 μM, and was added 2 hours prior to the addition of TRAIL. […] In the case of adriamycin, cells were pre-treated with adriamycin (0.5 μM final concentration) for 16 hours before the addition of TRAIL.
(§6) For detecting apoptosis mediated by TRAIL, an active-caspase 3 assay was performed using Cytofix/Cytoperm kit (Pharmingen, San Diego, Calif.), as previously described (Kim et al., Int. J. Oncol. 18:241-247 (2001)). Briefly, using standard techniques, 5×10^5 cells were seeded into a 6 well plate, after which, the cells were treated with TRAIL cross-linked with anti-6× His antibody. […] After washing, the cells were probed with 0.125 μg/μl of Phycoerythrin (PE)-conjugated goat anti-rabbit secondary antibody (Ab) (CALTAG Laboratories, Burlingame, Calif.) for 20 minutes in the dark. The intensity of PE was analyzed by flow cytometry using a Beckman-Coulter Epics Elite analyzer.

HFK cells = test: active-caspase 3 assay on foreskin keratinocytes; format: cell-based, human; details: increasing concentrations of TRAIL, 4 hours
Source text: Experiments were done in duplicate (mean value±SD).

[3] = system: TRAIL-resistant HCE4 cell line; test: time course western blot of caspase activation and PARP cleavage; format: cell-based, human; details: only in CHX-pretreated HCE4 cells; 6 hours CHX pre-incubation
Protocol: (§1) Western blot analysis was carried out as previously described (Meng et al., Clin. Cancer Res. 4:251-259 (1998)). Blotted membranes were immunostained with anti-DR4 (1:500; Pharmingen), anti-DR5 (1:500; IMGENEX, San Diego, Calif.), anti-DcR1 (1:500; Pharmingen), anti-DcR2 (1:500; Pharmingen), anti-FADD (Clone IF7, 1:2000; Upstate Biotechnology, Lake Placid, N.Y.), anti-caspase 8 (Clone 5F7, 1:1000; Upstate Biotechnology), anti-FLIP (Clone Dave-2, 1:1000; Alexis Biochemicals, San Diego, Calif.), anti-Bid (1:500; Pharmingen), anti-Bax (1:500, Pharmingen), anti Bcl-2 (Bcl-2/100, 1:500; Pharmingen), anti-Bcl-xL (1:500; Pharmingen), anti-caspase 3 (E-8, 1:200; Santa Cruz, Santa Cruz, Calif.), anti-PARP (1:2000; Roche Diagnostics GmbH, Mannheim, Germany), anti-TRAIL (1:500; PeproTech Inc., Rocky Hill, N.J.), or anti-actin (I-19, 1:200; Santa Cruz).
A time course experiment was performed using the TRAIL-resistant HCE4 cell line. After 6 hours of pre-incubation in the presence or absence of CHX, the cells were exposed to TRAIL, then lysates were prepared and harvested at time points every 30 minutes after the addition of TRAIL, up to 4 hrs by adding 1× SDS loading buffer. The timed lysates were subjected to 10 or 12% SDS-PAGE, and then immunoblotted and stained with the indicated antibodies (FIG. 3). […]

HCE4 cells = test: DISC IP analysis, recruitment of caspase 8 into DISC; format: cell-based, human; details: CHX-pre-treated vs control
Protocol: (§2) To perform the DISC analysis, cells were grown, harvested and re-suspended in 2 mL of DMEM (1.5×10^7 cells/mL). TRAIL (500 ng/mL final concentration) and anti-6× His antibody (2.5 μg/mL final concentration) were pre-mixed for 10 minutes on ice, then added to the re-suspended cells. The cells were treated with TRAIL for 20 minutes in a 37° C. water bath with intermittent agitation. TRAIL treatment was stopped by adding 5 mL of ice-cold PBS, followed by immediate centrifugation. […]
(§3) To the cleared lysate, 30 μL of protein A/G plus agarose beads (Santa Cruz) were added and incubated overnight in a cold room with continuous rocking. […] After centrifugation at the same condition, the precipitates were re-suspended in 1× SDS loading buffer and analyzed by 12% SDS-PAGE and western immunostaining.
(§4) In the control used to verify the DISC without TRAIL stimulation, the same amounts of TRAIL and antibody were added to the lysate after the cells were lysed with IP lysis buffer. Equal amounts of total cell lysates were also analyzed as an expression control. […]
(§5) FIGS. 3A and 3B depict an immunostained western blot showing the sensitization of TRAIL-resistant HCE4 cells to TRAIL resulting from CHX pre-treatment. […] Actin levels were measured as a control standard.

TE9 cells = test: as above; format: cell-based, human; details: CHX-pre-treated vs control
Protocol: as §2, §3, §4, §5

HCE4, TE3 and TE5 cells [4] = test: Bax translocation, cell fractionation and western blot; format: cell-based, human; details: cytoplasmic and heavy membrane fractions, western blot
Protocol: as §1
To prepare cytoplasmic fraction and mitochondria-rich heavy membrane fraction, cells were harvested, washed, and then re-suspended in RSB100 (10 mM Tris-HCl, pH 7.4, 2.5 mM MgCl2, 100 mM NaCl) containing 35 μg/mL digitonin (Calbiochem, San Diego, Calif.), and 1× complete protease inhibitor cocktail (Roche Diagnostics). After incubation on ice for 5 minutes, the cells were disrupted by passage through a 25G needle. […] Protein quantity was measured using Bio-Rad protein assay reagent (Bio-Rad, Hercules, Calif.). […]

HCE4, TE3 and TE5 cells [5] = test: mitochondrial transmembrane potential change, DiOC6 flow cytometry; format: cell-based, human; details: 0.5 μM adriamycin 16 hours; 100 nM DiOC6
Protocol: To detect any change of Δψm after treating cells with adriamycin, 3,3′-dihexyloxacarbocyanine iodide (DiOC6 (Pan et al., 1997)) were used. Briefly, 5×10^5 cells/well were seeded into a 6 well plate. After treatment with adriamycin, the cells were harvested, washed and re-suspended in complete media containing 100 nM DiOC6 (Pan et al., 1997) followed by 30 minutes incubation in a 37° C. water bath.
In addition to determine the potential mitochondrial membrane (Δψm) change after 16 hours of adriamycin (0.5 μM) pretreatment, the HCE4, TE3 and TE5 cells were incubated in the presence of 100 nM DiOC6 (Pan et al., 1997).

EPC2 = test: mitochondrial transmembrane potential change; format: cell-based, human; details: data not shown
[6] = system: TRAIL-resistant HCE4, TE3, and TE5 cells; test: active-caspase 3 assay, adriamycin plus TRAIL; format: cell-based, human; details: HCE4, TE3, TE5; 0.5 μM adriamycin 16 hours, then TRAIL 4 hours; no inhibitor
Protocol: Cells were treated with TRAIL (50 ng/mL final concentration) and 1 μg/mL of anti-6× His (N-terrninal histidine antibody) for 4 hours or for 16 hours. The caspase inhibitor was used at a final concentration of 20 μM, and was added 2 hours prior to the addition of TRAIL. When the cells were treated with both cycloheximide (CHX) and TRAIL, CHX (10 μg/mL final concentration) was added 6 hours before the addition of TRAIL. In the case of adriamycin, cells were pre-treated with adriamycin (0.5 μM final concentration) for 16 hours before the addition of TRAIL.
as §6
Accordingly, adriamycin was tested to determine whether its combination with TRAIL could induce synergistic cell killing in TRAIL-resistant esophageal cancer cells. TRAIL-resistant HCE4, TE3, and TE5 cells were pre-treated with 0.5 μM adriamycin for 16 hours, followed by incubation for 4 hours in the presence of TRAIL. z-LEHD-FMK (20 μM final concentration) was added 2 hours before the addition of TRAIL. An active-caspase 3 assay was used to determine whether apoptosis occurred.
Next, z-LEHD-FMK was tested in the HCE4, TE3 and TE5 cells to determine the protective effect of z-LEHD-FMK, if any, on the synergistic cell death driven by the combination of adriamycin with TRAIL.

TE5 cells = test: suppression of endogenous Bcl-xL by anti-sense morpholino, western blot and active-caspase 3 assay; format: cell-based, human
Protocol: Anti-sense Bcl-xL morpholino oligonucleotides (5′-[…]-3′) (SEQID NO:2) for suppressing expression of endogenous Bcl-xL in vivo, and fluorescein-labeled standard control oligonucleotides were purchased from Gene Tools, LLC (Corvallis, Oreg.). The scrape delivery method was used to deliver the oligonucleotides to the cells. Briefly, cells (1×10^6/well) were seeded into a 6-well culture plate, and after 16 hours of incubation, the medium was changed with 1 mL of fresh medium containing 20 μM morpholino oligonucleotides (chemically modified antisense oligonucleotides). Then, the cells were scraped out of the plates using a cell scraper (SARSTEDT, Newton, N.C.). After gently pipetting up and down twice, the cells were transferred to a new culture plate. After 48 hours of incubation, the cells were treated under the indicated conditions described in the corresponding figures for the example in which the cells were used. […] The effect is not seen in normal cells.
To confirm the effect of Bcl-xL on the synergistic cell killing, we introduced anti-sense Bcl-xL morpholino oligonucleotides (AS Bcl-xL) were introduced into TE5 cells. This was to determine the effect of suppression of the endogenous Bcl-xL in the TE5 cells. […]

[7] = system: all cells, including cancer cells; test: protection from the killing effect of TRAIL by caspase inhibitors; format: cell-based; details: stated without experimental detail

TRAIL: N-terminal histidine tagged recombinant human TRAIL (Thr-95 to Gly-281) from R&D Systems, cross-linked with anti-6x His antibody
TRAIL sensitivity (more than 30% of the cells active-caspase 3 positive) ([1]; TE2, TE9 and TE12 cell lines, TRAIL cross-linked with anti-6x His antibody, 16 hours): sensitive to TRAIL | TRAIL cytotoxicity (active-caspase 3) ([2]; TRAIL 5, 10, 25 or 50 ng/mL, 4 hours): showed cytotoxicity in a dose dependent manner | TRAIL cytotoxicity (active-caspase 3) (HFK cells): not affected

C[C@@H]1C[C@@H]([C@H](O)CC2CC(=O)NC(=O)C2)C(=O)[C@@H](C)C1 [CHX, cycloheximide]
onset of activation of caspase 8, Bid, caspase 9 and cleavage of PARP after TRAIL treatment [3]: approximately 1 hour | sensitization to TRAIL by CHX pre-treatment ([1]; all cancer cell lines, CHX 10 μg/mL for 6 hours before TRAIL): became sensitized to TRAIL | amount of caspase 8 in the DISC after CHX pre-treatment (HCE4 cells): slight decrease | amount of caspase 8 recruited into DISC after CHX pre-treatment (TE9 cells): no increase

COc1cccc2c1C(=O)c1c(O)c3c(c(O)c1C2=O)C[C@@](O)(C(=O)CO)C[C@@H]3O[C@H]1C[C@H](N)[C@H](O)[C@H](C)O1 [adriamycin, doxorubicin]
Bax translocation from the cytosol to the mitochondria after adriamycin treatment (HCE4, TE3 and TE5 cells [4]): only in the HCE4 cells | cell killing by combination of TRAIL and adriamycin ([2]; no inhibitor): synergistically killed | drop of Δψm after adriamycin treatment (HCE4, TE3 and TE5 cells [5]): a drop of Δψm was observed only in the HCE4 cells | drop of Δψm after adriamycin (EPC2): did not induce drop of Δψm | cell killing by combination of adriamycin and TRAIL [6]: the effect was synergistic

AS Bcl-xL: Anti-sense Bcl-xL morpholino oligonucleotide 5'-CGGTTGCTCTGAGACATTTTTATA-3' (SEQID NO:2), from Gene Tools (all phosphorodiamidate morpholino (PMO))
expression of endogenous Bcl-xL (TE5 cells; 20 μM morpholino oligonucleotide, scrape delivery, western blot): suppression of endogenous Bcl-xL was observed | cell death by adriamycin plus TRAIL when Bcl-xL is suppressed (TE5 cells; even in the presence of z-LEHD-FMK): underwent synergistic apoptotic cell death

z-IETD-FMK
protection from the killing effect of TRAIL [7]: protect all cells, including cancer cells, from the killing effect of TRAIL
